{
  "source": "patent US9079891B2",
  "about": "“Compounds that modulate intracellular calcium” (CALCIMEDICA, INC., priority 2010, dated 2015)",
  "key": {"[1]": {"biological_target": "T1, recombinant human STIM1 and Orai1 (Homo sapiens, UniProt Q96D31)", "T1 construct": "c-myc (C); expressed in transfected cells; host or cells: HEK-293 cells stably expressing human STIM1 and human Orai1", "T1 sequence (Q96D31 whole entry)": "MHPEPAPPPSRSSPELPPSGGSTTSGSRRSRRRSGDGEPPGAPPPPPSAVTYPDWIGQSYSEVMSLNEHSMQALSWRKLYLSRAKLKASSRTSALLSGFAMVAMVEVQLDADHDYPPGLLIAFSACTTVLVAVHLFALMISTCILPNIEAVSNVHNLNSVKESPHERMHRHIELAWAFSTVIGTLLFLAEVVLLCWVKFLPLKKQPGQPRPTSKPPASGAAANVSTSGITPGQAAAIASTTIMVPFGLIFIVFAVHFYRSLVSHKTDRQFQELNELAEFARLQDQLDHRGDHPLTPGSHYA", "experiment": "Fluorescence-based assay of store-operated calcium entry in Orai1/STIM1 stable cells (FLIPR)", "format": "cell-based", "settings": "HEK-293 cells stably expressing human Orai1/STIM1; Fluo-4; Peak-Basal signal; read-out: FLIPR_CRAC: 9 point CRC: O1S1_JR251: IC50: Peak_over_Basal", "procedure": "A. Fluorescence-Based Assay of Store-Operated Calcium Entry in Orai1/Stim1 Stable Cells.\nCells stably expressing recombinant human STIM1 and Orai1 are generated by transfecting a human Orai1 expression plasmid (pcDNA3.1-Orai1-cmyc) into HEK-293 cells stably overexpressing human STIM1 (Roos et al. 2005 JCB 169(3): 435-445). Colonies of cells stably expressing both STIM1 and Orai1 proteins are selected and then subcloned by limiting dilution. Cells were cultured at 37° C./6% CO2 in complete medium with 10% FBS and appropriate selection markers.\nThe day prior to performing the assay Orai1/STIM1 stable cells are plated in 50 μL of complete medium at 90-95% confluence in a 384 well plate. Cells are grown at 37° C./6% CO2 overnight. On the day of the assay, 1.5 μM fluo-4-AM (Invitrogen) in complete medium is added to the cells, which are then incubated for 1 hour at RT. Cells are washed once in Ca^2+-free HBSS (Hank's buffered saline solution) and 35 μl of Ca^2+-free HBSS is added to each well. Test compounds are added to wells in a 10 μL Ca^2+-free HBSS solution, prepared at 4.5× the desired final concentration, and incubated for 30 minutes at RT. The initial baseline fluorescence signal is then measured with a FLIPR^384 (Molecular Devices) plate reader. Calcium entry is initiated by adding 5 μl of 10×CaCl2 (10 mM) in HBSS, and changes in cellular fluorescence are measured with the FLIPR^384 plate reader. In each well, the magnitude of the fluorescence signal as a result of calcium entry into the cell is determined by calculating the difference between the peak fluorescence signal measured after calcium addition and the initial baseline fluorescence signal (designated Peak-Basal). IC50 values are typically calculated as the concentration that inhibited 50% of the Peak-Basal signal."}, "RBL-2H3 cells": {"test_system": "RBL-2H3 cells", "experiment": "Fluorescence-based assay of store-operated calcium entry in RBL-2H3 cells (FLIPR, thapsigargin)", "format": "cell-based, rat", "settings": "Rattus norvegicus, Fluo-4, Upslope 0-7 sec, read-out: FLIPR_CRAC: 9 pt CRC - Fluo4_TG-D: RBL-2H3: IC50: Upslope 0-7 sec", "procedure": "B. Fluorescence-Based Assay of Store-Operated Calcium Entry in RBL-2H3 Cells.\nRBL-2H3 cells are obtained from ATCC and maintained in complete medium with 10% FBS at 37° C./6% CO2.\nThe day prior to performing the assay, RBL-2H3 cells are plated in 50 μl of complete medium in a 384 well plate. Cells are grown at 37° C./6% CO2 overnight and grow to 50-60% confluence by the next day. On the assay day, 1.5 μM Fluo-4-AM dye (Invitrogen) in complete medium is added and incubated for 1 hour at RT. Cells are washed twice in Ca^2+-free HBSS buffer and 35 μl Ca^2+-free HBSS buffer is added to each well. 10 μl of a test compound prepared in a Ca^2+-free HBSS solution at 4.5× of the desired concentration is added to a well and incubated for 5 minutes at RT. 10 μl of thapsigargin prepared in a Ca^2+-free HBSS solution at 5.5× of the desired concentration (5.5 uM) is added to each well and incubated for an additional 25 minutes. The initial baseline fluorescence signal is measured with a FLIPR^384 (Molecular Devices) plate reader. 5 μl of 12× calcium in HBSS (12 mM) is added and changes in cellular fluorescence are measured with the FLIPR^384 plate reader. In each well, the change in the fluorescent signal as a function of time due to calcium entry into the cell is determined by calculating the difference between the fluorescent signal measured 7 seconds after calcium addition and the initial baseline fluorescence signal at time zero (t=0). This parameter is designated Upslope. The IC50 value is calculated as the concentration at which 50% of the Upslope is inhibited."}, "[2]": {"test_system": "secreted IL-2 in Jurkat T cells", "experiment": "In vitro assay of cytokine (IL-2) release from T cells", "format": "cell-based", "settings": "Homo sapiens; Jurkat E6-1 cells; PHA/TPA stimulation 20 hours; IL-2 ELISA", "procedure": "In Vitro Assay of Cytokine Release from T Cells\nJurkat E6-1 cells are obtained from ATCC and maintained in complete medium with 10% FBS at 37° C./6% CO2.\nThe day prior to performing the assay, Jurkat T cells are plated in 90 μL of HBSS Buffer with 1.8 mM CaCl2 and 1.75% fetal bovine serum (FBS) in a 96 well plate at a density of 1.5×10^5 cells/well for 3 hours. 10 μl of 10× test compound prepared in HBSS is added and incubated for 10 minutes at 37° C./6% CO2. Cells are stimulated by the addition of 10 μl of 11×PHA/TPA (27.5 μg/mL PHA/880 nM TPA) and incubated at 37° C./6% CO2 for 20 hours. On the following day, the supernatants are collected and assayed for IL-2 levels by ELISA according to the manufacturer's protocols. The IC50 value is calculated as the concentration at which 50% of secreted IL-2 in vehicle treated cells is inhibited."}},
  "data": [
    {"smiles": "Cn1nc(-c2ccco2)cc1-c1ccc(C(=O)Nc2ccccc2F)s1", "note": "[Example 61]", "values": [
      {"measurement": "IC50", "setting": "[1]", "result": "< 600", "unit": "nM"},
      {"measurement": "IC50", "setting": "RBL-2H3 cells", "result": "< 600", "unit": "nM"},
      {"measurement": "IC50", "setting": "[2]", "result": "< 50", "unit": "nM"}
    ]}
  ]
}
